Results: publication PMC9798632, “Tailor-made alkaliphilic and thermostable fungal laccases for industrial wood processing” (Biotechnology for Biofuels and Bioproducts, 2022)

Tests used:
Assay in all cases: spectrophotometric oxidation at […] nm, hyperbolic fit
Type in all cases: biochemical
[1] = biological target: T1, RY2 laccase (parent of Li9, Li10, Li11, C-LeB, Mol2, Mol3) (basidiomycete PM1, UniProt Q12571, N284D/F413N/F417I/F475P/F481M, form not given); details: 100 mM Tris-HCl pH 8, room temperature
T1 construct: one polypeptide; engineered from 7D5 (PDB 6H5Y, used as model template), which came from DNA shuffling of evolved PM1L and P. cinnabarinus laccases; RY2 residues: D263 (from N263), P454, S207, S291, V413, D457, A461, I468; evolved alpha-factor leader a9H2 as signal peptide; host S. cerevisiae BJ5465, purified by HPLC
T1 sequence (Q12571 entry or part of it N284D/F413N/F417I/F475P/F481M, form open): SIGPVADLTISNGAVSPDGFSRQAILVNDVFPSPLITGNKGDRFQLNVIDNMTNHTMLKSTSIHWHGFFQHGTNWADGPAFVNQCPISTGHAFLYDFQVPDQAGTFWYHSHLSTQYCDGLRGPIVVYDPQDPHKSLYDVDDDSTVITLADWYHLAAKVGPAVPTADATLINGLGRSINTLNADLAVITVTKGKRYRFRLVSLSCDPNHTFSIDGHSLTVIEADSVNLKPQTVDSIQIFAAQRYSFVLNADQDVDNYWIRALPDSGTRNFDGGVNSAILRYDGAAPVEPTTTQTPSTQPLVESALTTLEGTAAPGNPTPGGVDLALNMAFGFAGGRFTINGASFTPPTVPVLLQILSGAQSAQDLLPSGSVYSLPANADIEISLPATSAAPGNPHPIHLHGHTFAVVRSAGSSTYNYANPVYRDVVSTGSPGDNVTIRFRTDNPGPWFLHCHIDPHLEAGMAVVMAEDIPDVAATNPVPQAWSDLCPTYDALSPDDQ

[2] = biological target: T2, RY2 laccase (parent of Li9, Li10, Li11, C-LeB, Mol2, Mol3) (basidiomycete PM1, UniProt Q12571, N284V/F413N/F417I/V445T/S450T/D462N/F475P/A479L/F481M, form not given); details: 100 mM Tris-HCl pH 8, room temperature
T2 construct: one polypeptide; engineered from 7D5 (PDB 6H5Y, used as model template), which came from DNA shuffling of evolved PM1L and P. cinnabarinus laccases; RY2 residues: D263 (from N263), P454, S207, S291, V413, D457, A461, I468; evolved alpha-factor leader a9H2 as signal peptide; host S. cerevisiae BJ5465, purified by HPLC
T2 sequence (Q12571 entry or part of it N284V/F413N/F417I/V445T/S450T/D462N/F475P/A479L/F481M, form open): as the sequence (Q12571 entry or part of it N284D/F413N/F417I/F475P/F481M, form open) above, with D263V, V424T, S429T, D441N, A458L counted along it

[3] = biological target: T3, RY2 laccase (parent of Li9, Li10, Li11, C-LeB, Mol2, Mol3) (basidiomycete PM1, UniProt Q12571, N284D/F475P, form not given); details: pH 5, room temperature
T3 construct: one polypeptide; engineered from 7D5 (PDB 6H5Y, used as model template), which came from DNA shuffling of evolved PM1L and P. cinnabarinus laccases; RY2 residues: D263 (from N263), P454, S207, S291, V413, D457, A461, I468; evolved alpha-factor leader a9H2 as signal peptide; host S. cerevisiae BJ5465, purified by HPLC
T3 sequence (Q12571 entry or part of it N284D/F475P, form open): as the sequence (Q12571 entry or part of it N284D/F413N/F417I/F475P/F481M, form open) above, with N392F, I396F, M460F counted along it

[4] = biological target: T4, RY2 laccase (parent of Li9, Li10, Li11, C-LeB, Mol2, Mol3) (basidiomycete PM1, UniProt Q12571, N284V/F413N/F417I/F475P/F481M, form not given); details: 100 mM Tris-HCl pH 8, room temperature
T4 construct: one polypeptide; engineered from 7D5 (PDB 6H5Y, used as model template), which came from DNA shuffling of evolved PM1L and P. cinnabarinus laccases; RY2 residues: D263 (from N263), P454, S207, S291, V413, D457, A461, I468; evolved alpha-factor leader a9H2 as signal peptide; host S. cerevisiae BJ5465, purified by HPLC
T4 sequence (Q12571 entry or part of it N284V/F413N/F417I/F475P/F481M, form open): as the sequence (Q12571 entry or part of it N284D/F413N/F417I/F475P/F481M, form open) above, with D263V counted along it

[5] = biological target: T5, RY2 laccase (parent of Li9, Li10, Li11, C-LeB, Mol2, Mol3) (basidiomycete PM1, UniProt Q12571, N284V/F413N/F417I/F475P/A479L/F481M, form not given); details: 100 mM Tris-HCl pH 8, room temperature
T5 construct: one polypeptide; engineered from 7D5 (PDB 6H5Y, used as model template), which came from DNA shuffling of evolved PM1L and P. cinnabarinus laccases; RY2 residues: D263 (from N263), P454, S207, S291, V413, D457, A461, I468; evolved alpha-factor leader a9H2 as signal peptide; host S. cerevisiae BJ5465, purified by HPLC
T5 sequence (Q12571 entry or part of it N284V/F413N/F417I/F475P/A479L/F481M, form open): as the sequence (Q12571 entry or part of it N284D/F413N/F417I/F475P/F481M, form open) above, with D263V, A458L counted along it

Km [1]: 20000 ± 2400 µM
Km [2]: 1700 ± 200 µM
Km [3]: 260 ± 40 µM
Km [4]: 1500 ± 100 µM
Km [5]: 1700 ± 100 µM
Structure (SMILES): COc1cccc(OC)c1O [2,6-dimethoxyphenol]
